Assay results as given in publication PMC12027702, “Evaluation of Tyrosinase Inhibitory Activity of Carbathioamidopyrazoles and Their Potential Application in Cosmetic Products and Melanoma Treatment” (International Journal of Molecular Sciences, 2025).

molecular target: T1, mushroom tyrosinase; assay: Dixon plot, L-DOPA oxidation, absorbance at […] nm; type: biochemical; settings: L-DOPA substrate, phosphate buffer pH 6.88, 20 °C, 20 min preincubation, 10% DMSO; competitive
T1 construct: gene PPO3; PDB 2Y9X is only the docking model

**Q.** `CCc1cc(CC)n(C(N)=S)n1` [compound 2, 1-[amino(thioxo)methyl]-3,5-diethyl-1Hpyrazole] was tested. Which Ki did it give?
**A.** Its Ki is 64.4 µM.

**Q.** For `Cc1cc(O)n(C(N)=S)n1` [compound 4, 1-[amino(thioxo)methyl]-5-hydroxy-3-methyl-1H-pyrazole], which Ki is on record?
**A.** Its Ki is 7.88 µM.

**Q.** For `Cc1cc(C)n(C(N)=S)n1` [compound 1, 1-[amino(thioxo)methyl]-3,5-dimethyl-1Hpyrazole], which Ki is on record?
**A.** Its Ki is 14.6 µM.

**Q.** How did the Ki turn out when `NC(=S)n1nc(-c2ccccc2)cc1O` [compound 3, 1-[amino(thioxo)methyl]-5-hydroxy-3-phenyl-1Hpyrazole] was run?
**A.** The Ki was 118 µM.
